Values belong to the compound of their own block, whether it stands above or below them. Calls of active or inactive are those of the source. No cut-off for these calls is given here.
How the values were obtained:
HCT-116 [1] = test: Anti-proliferative activity against human HCT-116 cells assessed as inhibition of cell proliferation incubated for 72 hrs by CellTiter-Glo luminescent assay; format: functional, cell-based; details: HCT-116, 72 h
[2] = molecular target: Transitional endoplasmic reticulum ATPase (Homo sapiens, UniProt P55072); test: Inhibition of p97 (unknown origin) using ATP as substrate incubated for 60 mins by ADP-Glo reagent based luminescence assay
[3] = Elimination half life in Sprague-Dawley rat at 1 mg/kg, iv measured for 24 hrs by LC-MS/MS analysis; format: ADME, organism-based; details: in vivo, read-out: beta t1/2 (converted)
[4] = AUC (0 to t) in Sprague-Dawley rat at 1 mg/kg, iv measured for 24 hrs by LC-MS/MS analysis; format: ADME, organism-based; design: time 24 hrs, dose 1 mg/kg, route iv; details: in vivo
[5] = AUC (0 to infinity) in Sprague-Dawley rat at 1 mg/kg, iv by LC-MS/MS analysis; format: ADME, organism-based; design: time infinity, dose 1 mg/kg, route iv; details: in vivo
[6] = MRT in Sprague-Dawley rat at 1 mg/kg, iv measured for 24 hrs by LC-MS/MS analysis; format: ADME, organism-based; details: in vivo
[7] = Cmax in Sprague-Dawley rat at 10 mg/kg, po measured for 30 hrs by LC-MS/MS analysis; format: ADME, organism-based; design: dose 10 mg/kg, time 30 hrs, route po; details: in vivo
[8] = Tmax in Sprague-Dawley rat at 10 mg/kg, po measured for 30 hrs by LC-MS/MS analysis; format: ADME, organism-based; details: in vivo
[9] = Elimination half life in Sprague-Dawley rat at 10 mg/kg, po measured for 30 hrs by LC-MS/MS analysis; format: ADME, organism-based; details: in vivo, read-out: beta t1/2 (converted)
[10] = AUC (0 to t) in Sprague-Dawley rat at 10 mg/kg, po measured for 30 hrs by LC-MS/MS analysis; format: ADME, organism-based; design: dose 10 mg/kg, time 30 hrs, route po; details: in vivo
[11] = AUC (0 to infinity) in Sprague-Dawley rat at 10 mg/kg, po by LC-MS/MS analysis; format: ADME, organism-based; design: time infinity, dose 10 mg/kg, route po; details: in vivo
[12] = MRT in Sprague-Dawley rat at 10 mg/kg, po measured for 30 hrs by LC-MS/MS analysis; format: ADME, organism-based; details: in vivo
[13] = Oral bioavailability in Sprague-Dawley rat at 10 mg/kg measured for 30 hrs by LC-MS/MS analysis; format: ADME, organism-based; details: in vivo
[14] = Half life in human liver microsomes at 1 uM in presence of beta-NADPH measured for 60 mins by LC-MS/MS analysis; format: ADME, Microsome
[15] = Half life in mouse liver microsomes at 1 uM in presence of beta-NADPH measured for 60 mins by LC-MS/MS analysis; format: ADME, Microsome
[16] = Half life in rat liver microsomes at 1 uM in presence of beta-NADPH measured for 60 mins by LC-MS/MS analysis; format: ADME, Microsome
[17] = Half life in dog liver microsomes at 1 uM in presence of beta-NADPH measured for 60 mins by LC-MS/MS analysis; format: ADME, Canis lupus familiaris, Microsome
[18] = Half life in monkey liver microsomes at 1 uM in presence of beta-NADPH measured for 60 mins by LC-MS/MS analysis; format: ADME, Macaca mulatta, Microsome; details: rhesus monkey
[19] = Intrinsic clearance in human liver microsomes at 1 uM in presence of beta-NADPH measured for 60 mins by LC-MS/MS analysis; format: ADME, Microsome; details: read-out: CLH
[20] = Intrinsic clearance in mouse liver microsomes at 1 uM in presence of beta-NADPH measured for 60 mins by LC-MS/MS analysis; format: ADME, Microsome; details: read-out: CLH
[21] = Intrinsic clearance in rat liver microsomes at 1 uM in presence of beta-NADPH measured for 60 mins by LC-MS/MS analysis; format: ADME, Microsome; details: read-out: CLH
[22] = Intrinsic clearance in dog liver microsomes at 1 uM in presence of beta-NADPH measured for 60 mins by LC-MS/MS analysis; format: ADME, Canis lupus familiaris, Microsome; details: read-out: CLH
[23] = Intrinsic clearance in monkey liver microsomes at 1 uM in presence of beta-NADPH measured for 60 mins by LC-MS/MS analysis; format: ADME, Macaca mulatta, Microsome; details: rhesus monkey, read-out: CLH
[24] = Toxicity in BALB/c mouse xenografted with human HCT-116 cells assessed as body weight loss at 50 mg/kg, po qd for 21 days; format: organism-based; details: in vivo, 504 h, time 21 day
[25] = Toxicity in BALB/c mouse xenografted with human HCT-116 cells assessed as side effects at 50 mg/kg, po qd for 21 days; format: organism-based; details: in vivo, 504 h, time 21 day
[26] = Toxicity in BALB/c mouse xenografted with human HCT-116 cells assessed as side effects at 100 mg/kg, po measured on day 4; format: organism-based; details: in vivo, 96 h, time 4 day
[27] = Toxicity in BALB/c mouse xenografted with human HCT-116 cells assessed as body weight loss at 100 mg/kg, po measured on day 4; format: organism-based; details: in vivo, 96 h, time 4 day
[28] = Toxicity in BALB/c mouse xenografted with human HCT-116 cells assessed as animals death at 100 mg/kg, po measured on day 8; format: organism-based; details: in vivo, 192 h, time 8 day
[29] = Cmax in Sprague-Dawley rat at 1 mg/kg, iv measured for 24 hrs by LC-MS/MS analysis; format: ADME, organism-based; design: dose 1 mg/kg, time 24 hrs, route iv; details: in vivo
[30] = Tmax in Sprague-Dawley rat at 1 mg/kg, iv measured for 24 hrs by LC-MS/MS analysis; format: ADME, organism-based; details: in vivo
HCT-116 [31] = test: Anti-tumor activity against human HCT-116 cells xenografted in BALB/c mouse assessed as reduction in tumor volume at 100 mg/kg, po qd for 21 days; format: functional, organism-based; details: time 21.0 day
[32] = Toxicity in BALB/c mouse xenografted with human HCT-116 cells assessed as body weight loss at 100 mg/kg, po qd for 21 days; format: organism-based; details: in vivo, 504 h, time 21 day
[33] = Toxicity in BALB/c mouse xenografted with human HCT-116 cells assessed as side effects at 100 mg/kg, po qd for 21 days; format: organism-based; details: in vivo, 504 h, time 21 day

Chain of Transitional endoplasmic reticulum ATPase (P55072 whole entry): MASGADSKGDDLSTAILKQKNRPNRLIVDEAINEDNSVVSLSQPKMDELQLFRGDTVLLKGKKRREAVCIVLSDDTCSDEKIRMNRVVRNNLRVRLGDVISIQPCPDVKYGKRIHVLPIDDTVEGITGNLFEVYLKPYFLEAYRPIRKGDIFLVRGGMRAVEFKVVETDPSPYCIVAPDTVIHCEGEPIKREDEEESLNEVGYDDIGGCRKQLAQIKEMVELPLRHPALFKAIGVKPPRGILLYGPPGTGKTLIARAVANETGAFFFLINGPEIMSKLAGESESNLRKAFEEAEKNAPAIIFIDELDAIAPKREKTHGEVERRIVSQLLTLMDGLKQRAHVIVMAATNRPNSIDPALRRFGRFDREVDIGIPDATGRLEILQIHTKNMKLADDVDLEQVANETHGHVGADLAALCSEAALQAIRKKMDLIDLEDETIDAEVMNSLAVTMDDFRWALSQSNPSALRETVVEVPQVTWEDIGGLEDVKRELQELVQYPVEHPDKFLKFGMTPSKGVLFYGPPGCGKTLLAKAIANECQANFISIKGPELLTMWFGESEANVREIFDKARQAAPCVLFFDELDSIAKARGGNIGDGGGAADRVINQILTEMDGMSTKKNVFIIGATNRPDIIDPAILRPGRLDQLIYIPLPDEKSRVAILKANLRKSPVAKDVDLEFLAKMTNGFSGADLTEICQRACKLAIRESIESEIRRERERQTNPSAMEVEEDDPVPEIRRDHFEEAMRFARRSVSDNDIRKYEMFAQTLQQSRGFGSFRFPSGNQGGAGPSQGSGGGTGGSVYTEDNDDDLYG

Structure (SMILES): CONC(=O)c1cccc2c1cc(C)n2-c1nc2c(c(NCc3cccc(B(O)O)c3)n1)CCC2
- IC50 (HCT-116 [1]): 1000 nM
- IC50 [2]: 54 nM

Structure (SMILES): Cc1cc2c(NC(=O)c3cscn3)cccc2n1-c1nc2c(c(NCc3cccc(O)c3)n1)CCC2
- IC50 [2]: 216 nM

Structure (SMILES): Cc1cc2c(C(N)=O)cccc2n1-c1nc2c(c(NCc3cccc(N)c3)n1)CCC2
- IC50 [2]: 154 nM

Structure (SMILES): CON(C)C(=O)c1cccc2c1cc(C)n2-c1nc2c(c(NCc3cccc(B(O)O)c3)n1)CCC2
- IC50 [2]: 1220 nM

Structure (SMILES): COc1ccc(/C=C/C(=O)Nc2cccc3c2cc(C)n3-c2nc3c(c(NCc4cccc(O)c4)n2)CCC3)cc1
- IC50 [2]: 2470 nM

Structure (SMILES): Cc1cc2c(NC(=O)/C=C/c3ccccc3)cccc2n1-c1nc2c(c(NCc3cccc(O)c3)n1)CCC2
- IC50 [2]: 3510 nM

Structure (SMILES): CCONC(=O)c1cccc2c1cc(C)n2-c1nc2c(c(NCc3cccc(B(O)O)c3)n1)CCC2
- IC50 (HCT-116 [1]): 1400 nM
- IC50 [2]: 72 nM

Structure (SMILES): Cc1cc2c(C(N)=O)cccc2n1-c1nc2c(c(NCc3ccccc3)n1)CCCN2
- IC50 (HCT-116 [1]): 700 nM
- IC50 [2]: 44 nM
- half-life [3]: 22.8 min
- AUC(0-t) at 24 h [4]: 390 ng·h/mL
- AUC(0-inf) [5]: 398 ng·h/mL
- MRT [6]: 0.42 h
- Cmax [7]: 444 ng/mL
- Tmax [8]: 30 min
- half-life [9]: 73.8 min
- AUC(0-t) at 30 h [10]: 779 ng·h/mL
- AUC(0-inf) [11]: 796 ng·h/mL
- MRT [12]: 1.6 h
- bioavailability [13]: 20%
- half-life at 1 µM [14]: 35.9 min
- half-life at 1 µM [15]: 19.1 min
- half-life at 1 µM [16]: 7.9 min
- half-life at 1 µM [17]: 33 min
- half-life at 1 µM [18]: 9.8 min
- microsomal CLint at 1 µM [19]: 36.5 µL/min/mg
- microsomal CLint at 1 µM [20]: 176 µL/min/mg
- microsomal CLint at 1 µM [21]: 318 µL/min/mg
- microsomal CLint at 1 µM [22]: 60 µL/min/mg
- microsomal CLint at 1 µM [23]: 203 µL/min/mg
- Activity [24]: Non-Toxic
- Activity [25]: Non-Toxic
- Activity [26]: Toxic
- Activity [27]: Toxic
- Activity [28]: Toxic

Structure (SMILES): Cc1cc2c(NC(=O)c3ccco3)cccc2n1-c1nc2c(c(NCc3cccc(O)c3)n1)CCC2
- IC50 (HCT-116 [1]): 1200 nM
- IC50 [2]: 49 nM

Structure (SMILES): Cc1cc2c(NC(=O)c3cccs3)cccc2n1-c1nc2c(c(NCc3cccc(O)c3)n1)CCC2
- IC50 [2]: 185 nM

Continued, in another order:

- IC50 (HCT-116 [1]): 2400 nM
- IC50 [2]: 96 nM
Structure (SMILES): C/C=C/C(=O)Nc1cccc2c1cc(C)n2-c1nc2c(c(NCc3cccc(O)c3)n1)CCC2

- IC50 (HCT-116 [1]): 800 nM
- IC50 [2]: 97 nM
Structure (SMILES): Cc1cc2c(NS(C)(=O)=O)cccc2n1-c1nc2c(c(NCc3cccc(O)c3)n1)CCC2

- IC50 (HCT-116 [1]): 1200 nM
- IC50 [2]: 26 nM
Structure (SMILES): C=CC(=O)Nc1cccc2c1cc(C)n2-c1nc2c(c(NCc3cccc(O)c3)n1)CCC2

- IC50 (HCT-116 [1]): 300 nM
- IC50 [2]: 48 nM
- half-life [3]: 50.4 min
- AUC(0-t) at 24 h [4]: 94.8 ng·h/mL
- AUC(0-inf) [5]: 108 ng·h/mL
- MRT [6]: 1.23 h
- Cmax [7]: 52.5 ng/mL
- Tmax [8]: 30 min
- half-life [9]: 153 min
- AUC(0-t) at 30 h [10]: 108 ng·h/mL
- AUC(0-inf) [11]: 121 ng·h/mL
- MRT [12]: 3.35 h
- bioavailability [13]: 11.1%
Structure (SMILES): CONC(=O)c1cccc2c1cc(C)n2-c1nc2c(c(NCc3cccc(O)c3)n1)CCC2

- IC50 (HCT-116 [1]): 400 nM
- IC50 [2]: 53 nM
- Cmax [29]: 284 ng/mL
- Tmax [30]: 4.8 min
- half-life [3]: 168 min
- AUC(0-t) at 24 h [4]: 142 ng·h/mL
- AUC(0-inf) [5]: 147 ng·h/mL
- MRT [6]: 1.12 h
- Cmax [7]: 130 ng/mL
- Tmax [8]: 30 min
- half-life [9]: 228 min
- AUC(0-t) at 30 h [10]: 283 ng·h/mL
- AUC(0-inf) [11]: 345 ng·h/mL
- MRT [12]: 4.6 h
- bioavailability [13]: 23.5%
- half-life at 1 µM [14]: 37.1 min
- half-life at 1 µM [15]: 28.8 min
- half-life at 1 µM [16]: 10.5 min
- half-life at 1 µM [17]: 34.8 min
- half-life at 1 µM [18]: 23.8 min
- microsomal CLint at 1 µM [19]: 37.4 µL/min/mg
- microsomal CLint at 1 µM [20]: 48.2 µL/min/mg
- microsomal CLint at 1 µM [21]: 132 µL/min/mg
- microsomal CLint at 1 µM [22]: 39.8 µL/min/mg
- microsomal CLint at 1 µM [23]: 58.2 µL/min/mg
Structure (SMILES): Cc1cc2c(C(N)=O)cccc2n1-c1nc2c(c(NCc3cccc(O)c3)n1)CCC2
- Activity (HCT-116 [31]): Active
- Activity [32]: Non-Toxic
- Activity [33]: Non-Toxic

- IC50 (HCT-116 [1]): 1100 nM
- IC50 [2]: 35 nM
Structure (SMILES): Cc1cc2c(C(=N)NO)cccc2n1-c1nc2c(c(NCc3cccc(O)c3)n1)CCC2

- IC50 (HCT-116 [1]): 600 nM
- IC50 [2]: 31 nM
Structure (SMILES): CCONC(=O)c1cccc2c1cc(C)n2-c1nc2c(c(NCc3cccc(O)c3)n1)CCC2

- IC50 [2]: 863 nM
Structure (SMILES): CON(C)C(=O)c1cccc2c1cc(C)n2-c1nc2c(c(NCc3cccc(O)c3)n1)CCC2

- IC50 [2]: 233 nM
Structure (SMILES): Cc1cc2c(C(=N)N)cccc2n1-c1nc2c(c(NCc3cccc(O)c3)n1)CCC2

From ChEMBL document CHEMBL5096214, “Discovery of a new class of valosine containing protein (VCP/P97) inhibitors for the treatment of colorectal cancer” (Bioorg Med Chem, 2022)
